Literature values in PMC9516332 (Frontiers in Oncology, 2022).
Read-outs that look alike come from different tables or passages of the source.

Experiments:
Conditions in all cases: cited from earlier work
[1] = molecular target: panel of 255 wild-type kinases (Homo sapiens, UniProt Q9NYA1)
[2] = molecular target: panel of 255 wild-type kinases (Homo sapiens, UniProt Q9H2X6)
[3] = molecular target: T1, panel of 255 wild-type kinases (Homo sapiens, UniProt Q96BR1)
T1 sequence (Q96BR1 1-496): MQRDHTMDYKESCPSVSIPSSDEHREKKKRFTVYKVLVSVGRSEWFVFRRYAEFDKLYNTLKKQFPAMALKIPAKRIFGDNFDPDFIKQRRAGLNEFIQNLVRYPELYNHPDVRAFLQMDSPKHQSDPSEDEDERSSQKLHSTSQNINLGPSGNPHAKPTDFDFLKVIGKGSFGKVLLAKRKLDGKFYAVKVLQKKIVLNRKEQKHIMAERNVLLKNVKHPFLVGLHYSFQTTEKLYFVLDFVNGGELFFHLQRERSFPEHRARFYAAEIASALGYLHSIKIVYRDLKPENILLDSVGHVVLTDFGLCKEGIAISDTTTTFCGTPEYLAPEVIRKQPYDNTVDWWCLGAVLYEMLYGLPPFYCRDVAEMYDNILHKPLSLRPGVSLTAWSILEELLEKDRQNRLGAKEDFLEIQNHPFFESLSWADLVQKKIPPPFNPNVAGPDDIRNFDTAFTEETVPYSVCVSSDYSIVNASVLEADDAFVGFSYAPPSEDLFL

[4] = molecular target: T2, panel of 255 wild-type kinases (Homo sapiens, UniProt Q05513)
T2 sequence (Q05513 1-592): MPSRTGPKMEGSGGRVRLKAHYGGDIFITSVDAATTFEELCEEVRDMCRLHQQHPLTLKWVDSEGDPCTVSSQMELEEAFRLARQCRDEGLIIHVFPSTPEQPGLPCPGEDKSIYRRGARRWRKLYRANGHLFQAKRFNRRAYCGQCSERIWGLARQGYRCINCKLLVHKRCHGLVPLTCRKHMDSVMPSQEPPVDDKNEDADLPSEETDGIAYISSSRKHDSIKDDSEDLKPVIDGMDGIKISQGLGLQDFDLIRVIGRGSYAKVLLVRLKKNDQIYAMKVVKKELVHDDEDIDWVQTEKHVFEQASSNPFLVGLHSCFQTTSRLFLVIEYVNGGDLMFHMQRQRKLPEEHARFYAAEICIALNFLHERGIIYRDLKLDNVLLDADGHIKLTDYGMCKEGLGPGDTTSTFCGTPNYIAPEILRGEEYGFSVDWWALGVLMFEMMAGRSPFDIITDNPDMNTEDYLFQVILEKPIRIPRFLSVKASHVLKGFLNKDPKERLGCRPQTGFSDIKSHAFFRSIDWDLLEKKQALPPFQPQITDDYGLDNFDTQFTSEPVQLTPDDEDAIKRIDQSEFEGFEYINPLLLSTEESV

[5] = molecular target: T3, panel of 255 wild-type kinases (Homo sapiens, UniProt Q96PF2)
T3 sequence (Q96PF2 1-358): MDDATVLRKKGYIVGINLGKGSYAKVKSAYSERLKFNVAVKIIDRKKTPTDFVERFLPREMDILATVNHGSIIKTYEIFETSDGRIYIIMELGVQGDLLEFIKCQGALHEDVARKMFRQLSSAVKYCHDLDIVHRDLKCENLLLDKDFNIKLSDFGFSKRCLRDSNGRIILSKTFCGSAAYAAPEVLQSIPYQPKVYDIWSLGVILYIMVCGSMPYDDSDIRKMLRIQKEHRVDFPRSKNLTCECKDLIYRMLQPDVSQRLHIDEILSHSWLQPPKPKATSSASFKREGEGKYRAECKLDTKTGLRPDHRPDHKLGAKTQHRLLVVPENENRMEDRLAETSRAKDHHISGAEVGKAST

[6] = molecular target: T4, panel of 255 wild-type kinases (Homo sapiens, UniProt Q8TF76)
T4 sequence (Q8TF76 1-798): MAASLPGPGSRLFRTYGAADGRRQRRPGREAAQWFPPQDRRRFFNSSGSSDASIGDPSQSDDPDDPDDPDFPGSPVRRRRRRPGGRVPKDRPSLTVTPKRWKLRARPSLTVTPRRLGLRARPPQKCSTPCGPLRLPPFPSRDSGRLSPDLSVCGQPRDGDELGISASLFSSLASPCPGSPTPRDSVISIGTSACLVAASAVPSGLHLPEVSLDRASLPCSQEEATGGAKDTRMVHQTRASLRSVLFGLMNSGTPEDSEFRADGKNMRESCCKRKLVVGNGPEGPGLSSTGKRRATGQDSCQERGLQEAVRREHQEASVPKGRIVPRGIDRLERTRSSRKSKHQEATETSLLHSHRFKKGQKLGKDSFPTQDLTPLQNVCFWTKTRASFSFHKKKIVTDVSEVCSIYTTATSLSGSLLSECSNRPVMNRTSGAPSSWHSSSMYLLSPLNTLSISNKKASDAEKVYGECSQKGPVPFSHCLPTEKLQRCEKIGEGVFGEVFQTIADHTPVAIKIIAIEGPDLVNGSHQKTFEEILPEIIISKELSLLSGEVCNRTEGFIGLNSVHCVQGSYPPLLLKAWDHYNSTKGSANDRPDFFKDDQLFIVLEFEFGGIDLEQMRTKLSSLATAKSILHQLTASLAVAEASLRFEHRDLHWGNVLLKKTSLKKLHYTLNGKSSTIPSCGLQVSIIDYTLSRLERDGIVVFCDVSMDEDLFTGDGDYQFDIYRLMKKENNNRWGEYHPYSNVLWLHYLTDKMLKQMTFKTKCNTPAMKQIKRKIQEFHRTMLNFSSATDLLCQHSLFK

[7] = molecular target: panel of 255 wild-type kinases (Homo sapiens, UniProt P51617)
[8] = kinase SPHK1, 1 µmol/L single concentration, ref DOI: 10.1158/1535-7163.MCT-18-0877
[9] = kinase HIPK2, 1 µmol/L single concentration, ref DOI: 10.1158/1535-7163.MCT-18-0877
[10] = kinase SGK3, 1 µmol/L single concentration, ref DOI: 10.1158/1535-7163.MCT-18-0877
[11] = kinase PKCζ, 1 µmol/L single concentration, ref DOI: 10.1158/1535-7163.MCT-18-0877
[12] = kinase TSSK2, 1 µmol/L single concentration, ref DOI: 10.1158/1535-7163.MCT-18-0877
[13] = kinase Haspin, 1 µmol/L single concentration, ref DOI: 10.1158/1535-7163.MCT-18-0877
[14] = kinase IRAK1, 1 µmol/L single concentration, ref DOI: 10.1158/1535-7163.MCT-18-0877
[15] = kinase SPHK1, 1 µmol/L single concentration, ref DOI: 10.1371/journal.pone.0092146
[16] = kinase HIPK2, 1 µmol/L single concentration, ref DOI: 10.1371/journal.pone.0092146
[17] = kinase SGK3, 1 µmol/L single concentration, ref DOI: 10.1371/journal.pone.0092146
[18] = kinase PKCζ, 1 µmol/L single concentration, ref DOI: 10.1371/journal.pone.0092146
[19] = kinase TSSK2, 1 µmol/L single concentration, ref DOI: 10.1371/journal.pone.0092146
[20] = kinase Haspin, 1 µmol/L single concentration, ref DOI: 10.1371/journal.pone.0092146
[21] = kinase IRAK1, 1 µmol/L single concentration, ref DOI: 10.1371/journal.pone.0092146

| Structure (SMILES) | %-inhibition at 1 µmol/L, SPHK1 [1, 8] | %-inhibition at 1 µmol/L, HIPK2 [2, 9] | %-inhibition at 1 µmol/L, SGK3 [3, 10] | %-inhibition at 1 µmol/L, PKCζ [4, 11] | %-inhibition at 1 µmol/L, TSSK2 [5, 12] | %-inhibition at 1 µmol/L, Haspin [6, 13] | %-inhibition at 1 µmol/L, IRAK1 [7, 14] | %-inhibition at 1 µmol/L, SPHK1 [1, 15] | %-inhibition at 1 µmol/L, HIPK2 [2, 16] | %-inhibition at 1 µmol/L, SGK3 [3, 17] | %-inhibition at 1 µmol/L, PKCζ [4, 18] | %-inhibition at 1 µmol/L, TSSK2 [5, 19] | %-inhibition at 1 µmol/L, Haspin [6, 20] | %-inhibition at 1 µmol/L, IRAK1 [7, 21] | also measured |
| --- | --- | --- | --- | --- | --- | --- | --- | --- | --- | --- | --- | --- | --- | --- | --- |
| CC#CC(=O)N1CCC[C@H]1c1nc(-c2ccc(C(=O)Nc3ccccn3)cc2)c2c(N)nccn12 [acalabrutinib] | -3% | -11% | -12% | -5.44% | -3% | 5.31% | -7% | – | – | – | – | – | – | – | – |
| CCc1cc2c(cc1N1CCC(N3CCOCC3)CC1)C(C)(C)c1[nH]c3cc(C#N)ccc3c1C2=O [alectinib] | -10% | 8% | 1.51% | 10% | 7% | 8% | 92% | – | – | – | – | – | – | – | – |
| COc1cc(N2CCC(N3CCN(C)CC3)CC2)ccc1Nc1ncc(Cl)c(Nc2ccccc2P(C)(C)=O)n1 [brigatinib] | – | – | – | – | – | – | – | – | – | – | – | – | – | – | %-inhibition at 1 µmol/L, SPHK1 [1]: -4%; %-inhibition at 1 µmol/L, HIPK2 [2]: 9%; %-inhibition at 1 µmol/L, SGK3 [3]: -2.26%; %-inhibition at 1 µmol/L, PKCζ [4]: 5%; %-inhibition at 1 µmol/L, TSSK2 [5]: 79%; %-inhibition at 1 µmol/L, Haspin [6]: 9%; %-inhibition at 1 µmol/L, IRAK1 [7]: 69% |
| Cc1cc(Nc2ncc(Cl)c(Nc3ccccc3S(=O)(=O)C(C)C)n2)c(OC(C)C)cc1C1CCNCC1 [ceritinib] | -13% | 37% | -0.738% | 14% | 75% | 7% | 9% | – | – | – | – | – | – | – | – |
| O=C(c1ccc(F)c(F)c1Nc1ccc(I)cc1F)N1CC(O)([C@@H]2CCCCN2)C1 [cobimetinib] | -5.63% | 1.68% | -4% | 9% | -2.33% | 8% | 0.65% | – | – | – | – | – | – | – | – |
| C[C@@H](Oc1cc(-c2cnn(C3CCNCC3)c2)cnc1N)c1c(Cl)ccc(F)c1Cl [crizotinib] | – | – | – | – | – | – | – | -14% | -6.53% | -3% | 9% | 0.896% | 7% | 92% | – |
| CC(C)(C)c1nc(-c2cccc(NS(=O)(=O)c3c(F)cccc3F)c2F)c(-c2ccnc(N)n2)s1 [dabrafenib] | – | – | – | – | – | – | – | -18% | 42% | 0.0854% | 5% | -1.73% | 9% | -48% | – |
| C=CC(=O)N1CCC[C@@H](n2nc(-c3ccc(Oc4ccccc4)cc3)c3c(N)ncnc32)C1 [ibrutinib] | -3.38% | 2% | 0.579% | 10% | -4% | 2.53% | -11% | – | – | – | – | – | – | – | – |
| CO[C@@H]1[C@H](N(C)C(=O)c2ccccc2)C[C@H]2O[C@]1(C)n1c3ccccc3c3c4c(c5c6ccccc6n2c5c31)C(=O)NC4 [midostaurin] | -2.46% | 34% | 16% | -3.41% | 24% | 31% | 10% | – | – | – | – | – | – | – | – |
| C=CC(=O)Nc1cc(Nc2nccc(-c3cn(C)c4ccccc34)n2)c(OC)cc1N(C)CCN(C)C [osimertinib] | 9% | 40% | 3.6% | 9.52% | -0.257% | 14% | 7% | – | – | – | – | – | – | – | – |
| CC(=O)Nc1cccc(-n2c(=O)n(C3CC3)c(=O)c3c(Nc4ccc(I)cc4F)n(C)c(=O)c(C)c32)c1 [trametinib] | – | – | – | – | – | – | – | -11% | 0.155% | 0.769% | 4.31% | -1.73% | 5% | 6% | – |
| CCCS(=O)(=O)Nc1ccc(F)c(C(=O)c2c[nH]c3ncc(-c4ccc(Cl)cc4)cc23)c1F [vemurafenib] | – | – | – | – | – | – | – | -11% | -5% | -2.38% | 13% | -11% | -3% | 10% | – |
